Data from article PMC8645336, “Benchmarking a highly selective USP30 inhibitor for enhancement of mitophagy and pexophagy” (Life Science Alliance, 2021).

How the values were obtained:
Assay in all cases: biochemical
Set-up in all cases: Ubiquigent DUB profiler selectivity panel, remaining enzyme activity as % of control
Conditions in all cases: read-out: % of control remaining
UCHL3 = target: T1, UCHL3 (Homo sapiens, UniProt P15374)
T1 sequence (P15374 1-230): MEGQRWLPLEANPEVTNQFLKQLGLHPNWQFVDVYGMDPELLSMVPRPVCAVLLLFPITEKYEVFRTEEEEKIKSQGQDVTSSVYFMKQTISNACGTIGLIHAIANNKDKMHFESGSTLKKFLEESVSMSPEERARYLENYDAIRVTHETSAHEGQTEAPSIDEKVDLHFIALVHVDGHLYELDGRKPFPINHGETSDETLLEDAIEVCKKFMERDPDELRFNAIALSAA
Procedure, shortened: (§1)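 In YFP-PRKN-overexpressing hTERT-RPE1 cells, 1 h antimycin A plus oligomycin A (1 μM each) with CMPD-39, then Western blot of TOMM20 ubiquitylation. Target engagement: 2 h compound, then 10 min HA-Ub-PA at 37°C, read as USP30 shift. DUB panel (>40 enzymes) screened at 1-100 μM.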

USP20 = USP20 (Homo sapiens, UniProt Q9Y2K6)
Procedure, shortened: as §1

USP30 = target: T2, USP30 (Homo sapiens, UniProt Q70CQ3)
T2 sequence (Q70CQ3 1-517): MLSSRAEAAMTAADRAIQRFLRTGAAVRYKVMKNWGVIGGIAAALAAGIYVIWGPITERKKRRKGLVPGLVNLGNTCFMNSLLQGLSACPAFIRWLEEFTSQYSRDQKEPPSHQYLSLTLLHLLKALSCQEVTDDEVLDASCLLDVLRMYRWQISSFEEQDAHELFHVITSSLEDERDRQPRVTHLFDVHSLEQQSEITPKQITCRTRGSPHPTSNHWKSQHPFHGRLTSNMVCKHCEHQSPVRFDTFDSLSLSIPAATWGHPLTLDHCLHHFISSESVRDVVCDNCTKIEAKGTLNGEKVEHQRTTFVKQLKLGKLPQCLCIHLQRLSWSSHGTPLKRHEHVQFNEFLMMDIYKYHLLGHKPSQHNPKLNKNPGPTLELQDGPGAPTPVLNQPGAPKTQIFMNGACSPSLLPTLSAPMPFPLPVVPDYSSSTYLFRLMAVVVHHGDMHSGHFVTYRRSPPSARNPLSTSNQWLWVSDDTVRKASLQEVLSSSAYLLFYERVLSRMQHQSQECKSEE
Procedure, shortened: as §1

USP9x = USP9x (Homo sapiens, UniProt Q93008)
Procedure, shortened: as §1

USP20, sequence (Q9Y2K6 whole entry): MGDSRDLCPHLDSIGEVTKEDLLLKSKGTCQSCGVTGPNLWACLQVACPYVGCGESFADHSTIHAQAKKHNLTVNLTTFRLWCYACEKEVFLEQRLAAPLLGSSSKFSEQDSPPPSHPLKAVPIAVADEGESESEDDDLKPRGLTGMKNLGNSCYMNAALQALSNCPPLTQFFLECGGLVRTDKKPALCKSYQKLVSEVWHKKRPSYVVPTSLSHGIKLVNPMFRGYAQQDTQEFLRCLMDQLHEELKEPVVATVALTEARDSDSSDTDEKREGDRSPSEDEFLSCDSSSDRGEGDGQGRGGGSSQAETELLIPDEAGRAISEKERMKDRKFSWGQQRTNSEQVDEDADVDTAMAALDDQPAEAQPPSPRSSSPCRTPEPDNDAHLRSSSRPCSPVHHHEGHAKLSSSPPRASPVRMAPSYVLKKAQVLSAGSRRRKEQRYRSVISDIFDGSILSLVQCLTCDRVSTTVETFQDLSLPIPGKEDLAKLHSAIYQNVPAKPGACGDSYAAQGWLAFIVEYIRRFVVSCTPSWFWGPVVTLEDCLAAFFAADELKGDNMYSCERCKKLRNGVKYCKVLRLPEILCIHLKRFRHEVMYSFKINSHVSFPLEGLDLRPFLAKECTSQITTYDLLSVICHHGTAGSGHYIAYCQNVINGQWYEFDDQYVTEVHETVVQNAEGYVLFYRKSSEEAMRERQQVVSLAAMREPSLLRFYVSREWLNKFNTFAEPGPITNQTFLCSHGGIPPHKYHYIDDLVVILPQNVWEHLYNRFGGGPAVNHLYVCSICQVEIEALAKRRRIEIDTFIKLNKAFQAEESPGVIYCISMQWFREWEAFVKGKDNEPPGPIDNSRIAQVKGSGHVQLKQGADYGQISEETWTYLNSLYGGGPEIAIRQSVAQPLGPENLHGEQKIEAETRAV
USP9x, sequence (Q93008 whole entry): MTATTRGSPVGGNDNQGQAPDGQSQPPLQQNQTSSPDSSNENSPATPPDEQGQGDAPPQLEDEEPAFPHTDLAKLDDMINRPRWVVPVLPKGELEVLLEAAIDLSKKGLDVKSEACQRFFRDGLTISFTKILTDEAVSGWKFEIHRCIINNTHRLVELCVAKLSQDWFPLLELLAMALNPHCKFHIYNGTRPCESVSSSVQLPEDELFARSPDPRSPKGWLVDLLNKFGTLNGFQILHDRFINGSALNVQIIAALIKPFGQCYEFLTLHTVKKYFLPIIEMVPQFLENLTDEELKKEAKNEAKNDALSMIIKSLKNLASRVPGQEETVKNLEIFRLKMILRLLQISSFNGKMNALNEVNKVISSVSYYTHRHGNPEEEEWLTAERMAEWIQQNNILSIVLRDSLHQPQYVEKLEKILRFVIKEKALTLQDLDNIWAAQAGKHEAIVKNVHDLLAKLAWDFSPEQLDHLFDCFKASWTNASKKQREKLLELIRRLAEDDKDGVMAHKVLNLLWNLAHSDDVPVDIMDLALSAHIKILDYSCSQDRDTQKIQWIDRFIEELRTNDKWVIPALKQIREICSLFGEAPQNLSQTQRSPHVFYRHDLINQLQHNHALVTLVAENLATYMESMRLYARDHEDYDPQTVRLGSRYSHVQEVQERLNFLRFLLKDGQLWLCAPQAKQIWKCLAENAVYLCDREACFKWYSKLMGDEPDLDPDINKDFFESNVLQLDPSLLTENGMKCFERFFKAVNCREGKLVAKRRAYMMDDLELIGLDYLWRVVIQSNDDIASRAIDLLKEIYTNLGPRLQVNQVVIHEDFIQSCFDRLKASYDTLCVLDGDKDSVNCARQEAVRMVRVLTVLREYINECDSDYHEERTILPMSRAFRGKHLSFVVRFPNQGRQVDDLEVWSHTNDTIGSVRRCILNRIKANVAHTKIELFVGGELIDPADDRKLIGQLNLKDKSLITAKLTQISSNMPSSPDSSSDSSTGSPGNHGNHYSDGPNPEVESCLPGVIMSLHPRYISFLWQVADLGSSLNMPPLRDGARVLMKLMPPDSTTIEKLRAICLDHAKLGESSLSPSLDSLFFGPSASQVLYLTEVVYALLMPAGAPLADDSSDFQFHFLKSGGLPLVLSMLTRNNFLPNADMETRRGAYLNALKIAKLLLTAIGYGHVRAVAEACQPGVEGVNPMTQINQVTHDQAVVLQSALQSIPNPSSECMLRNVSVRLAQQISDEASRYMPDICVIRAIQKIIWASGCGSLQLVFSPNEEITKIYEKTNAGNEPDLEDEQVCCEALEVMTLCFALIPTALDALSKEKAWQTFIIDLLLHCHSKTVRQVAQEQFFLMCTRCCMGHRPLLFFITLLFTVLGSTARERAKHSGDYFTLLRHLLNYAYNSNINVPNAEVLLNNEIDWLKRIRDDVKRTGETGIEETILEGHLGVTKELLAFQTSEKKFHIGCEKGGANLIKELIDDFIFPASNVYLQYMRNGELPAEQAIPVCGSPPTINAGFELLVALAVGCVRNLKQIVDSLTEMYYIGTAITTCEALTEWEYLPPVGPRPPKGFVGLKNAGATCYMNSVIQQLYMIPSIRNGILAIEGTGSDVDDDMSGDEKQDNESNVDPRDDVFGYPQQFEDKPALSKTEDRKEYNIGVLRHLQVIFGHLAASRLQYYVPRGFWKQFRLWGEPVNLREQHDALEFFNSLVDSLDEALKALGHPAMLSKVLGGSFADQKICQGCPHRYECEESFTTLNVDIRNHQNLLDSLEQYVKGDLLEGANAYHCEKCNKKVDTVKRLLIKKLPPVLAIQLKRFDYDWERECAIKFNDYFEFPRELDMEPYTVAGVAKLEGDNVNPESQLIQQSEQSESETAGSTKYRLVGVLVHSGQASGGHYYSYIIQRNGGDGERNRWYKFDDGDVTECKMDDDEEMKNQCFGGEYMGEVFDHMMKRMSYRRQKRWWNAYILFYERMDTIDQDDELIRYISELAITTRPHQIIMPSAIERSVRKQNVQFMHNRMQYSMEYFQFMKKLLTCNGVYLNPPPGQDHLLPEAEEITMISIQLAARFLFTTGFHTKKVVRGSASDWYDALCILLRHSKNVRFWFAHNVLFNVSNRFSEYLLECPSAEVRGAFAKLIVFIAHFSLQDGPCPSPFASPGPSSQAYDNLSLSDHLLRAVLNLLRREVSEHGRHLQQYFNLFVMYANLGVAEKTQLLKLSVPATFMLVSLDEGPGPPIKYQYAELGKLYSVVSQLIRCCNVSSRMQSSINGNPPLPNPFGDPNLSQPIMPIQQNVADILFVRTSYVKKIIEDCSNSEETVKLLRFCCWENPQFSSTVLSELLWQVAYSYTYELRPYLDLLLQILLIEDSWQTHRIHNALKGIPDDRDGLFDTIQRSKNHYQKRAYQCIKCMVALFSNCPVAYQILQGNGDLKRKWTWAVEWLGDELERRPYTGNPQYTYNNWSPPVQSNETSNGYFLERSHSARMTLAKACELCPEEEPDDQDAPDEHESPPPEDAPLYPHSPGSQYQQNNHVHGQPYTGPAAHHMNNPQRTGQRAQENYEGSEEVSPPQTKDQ

CC(C)(C)NS(=O)(=O)c1ccc(NC(=O)[C@H](Cc2ccccc2)NC(=O)c2ccc(F)cc2)cc1 [compound 39, CMPD-39]
remaining activity at 1 µM (UCHL3): 107%
remaining activity at 10 µM (UCHL3): 98.8%
remaining activity at 100 µM (UCHL3): 97.6%
remaining activity at 1 µM (USP20): 113%
remaining activity at 10 µM (USP20): 110%
remaining activity at 100 µM (USP20): 155%
remaining activity at 1 µM (USP30): 0.756%
remaining activity at 10 µM (USP30): 0.5%
remaining activity at 100 µM (USP30): 3.27%
remaining activity at 1 µM (USP9x): 104%
remaining activity at 10 µM (USP9x): 108%
remaining activity at 100 µM (USP9x): 98.3%
